Columns and labels:
stepping in animals = assay: Pharmacological facilitation of stepping, optimal concentration of illustrative agents (Table 1); type: in vivo
Method: In certain embodiments, the methods described herein are used in conjunction with various pharmacological agents. […] These agents can be used in combination with epidural stimulation and physical therapy as described above.
In certain embodiments, the drugs are administered systemically, while in other embodiments, the drugs are administered locally, e.g., to particular regions of the spinal cord. Drugs that modulate the excitability of the spinal neuromotor networks are combinations of noradrenergic, serotonergic, GABAergic, and glycinergic receptor agonists and antagonists. Illustrative pharmacological agents include, but are not limited to agonists and antagonists to one or more combinations of serotonergic: 5-HT1A, 5-HT2A, 5-HT3, and 5HT7 receptors; to noradrenergic alpha1 and 2 receptors; and to dopaminergic D1 and D2 receptors (see, e.g., Table 1).

[1] = test system: rat with complete mid-thoracic spinal cord transection; assay: Epidural stimulation coupled with drug therapy, locomotor behavior after complete spinal cord transection (FIG. 1); type: in vivo
Method: FIG. 1 summarizes recent experiments in rats that were carried out to assess the effectiveness of epidural stimulation coupled with combined drug therapy in the treatment of complete spinal cord injuries. The combination of quipazine and 8-0HDPAT with simultaneous epidural stimulation at spinal sites L2 and S1 results in robust coordinated stepping as early as one week after a complete spinal cord transection. Locomotor behavior observed from a typical rat before the injury and one week after a complete mid-thoracic spinal cord transection. The amount of body weight support provided to the rat is shown in red. One week post-injury, no spontaneous stepping activity is observed. […] Sol, soleus; TA, tibialis anterior; MTP, metatarsal-phalangeal.
FIG. 1 summarizes experiments in rats that were carried out to assess the effectiveness of epidural stimulation coupled with combined drug therapy in acute treatment of complete spinal cord injury.

[2] = one week after complete mid-thoracic spinal cord transection, drug administration without epidural stimulation
[3] = one week post-injury, epidural stimulation at L2 plus S1 with quipazine plus 8-OHDPAT together
[4] = one week post-injury, epidural stimulation simultaneously at L2 plus S1 in combination with either quipazine or 8-OHDPAT

Oc1cc2c(c(Cl)c1O)CCNCC2c1ccccc1 (stereo not drawn) [SKF-81297]
Optimal Concentration (stepping in animals; route I.P.): 0.2 mg/kg

CCCN(CCC)C1CCc2cccc(O)c2C1 (stereo not drawn) [8-OHDPAT]
Optimal Concentration (stepping in animals; route S.C.): 0.05 mg/kg
Locomotor behavior (stepping) [1, 2]: erratic movements
Locomotor behavior (stepping) [1, 3]: coordinated, plantar stepping with features resembling those observed pre-lesion
Locomotor behavior (stepping) [1, 4]: enables plantar stepping

Cl.NC1CCN(c2cccc(Cl)n2)CC1 [SR 57227A]
Optimal Concentration (stepping in animals; route I.P.): 1.5 mg/kg

CC1CCN(CC[C@H]2CCCN2S(=O)(=O)c2cccc(O)c2)CC1 [SB 269970]
Optimal Concentration (stepping in animals; route I.P.): 7 mg/kg

COc1ccccc1N1CCN(CCN(C(=O)C2CCCCC2)c2ccccn2)CC1 [Way 100.635]
Optimal Concentration (stepping in animals; route I.P.): 0.5 mg/kg

c1ccc2nc(N3CCNCC3)ccc2c1 [Quipazine]
Locomotor behavior (stepping) [1, 2]: erratic movements
Locomotor behavior (stepping) [1, 3]: coordinated, plantar stepping with features resembling those observed pre-lesion
Locomotor behavior (stepping) [1, 4]: enables plantar stepping

Cc1nccn1CC1CCc2c(c3ccccc3n2C)C1=O (stereo not drawn) [Ondanesetron]
Optimal Concentration (stepping in animals; route I.P.): 3 mg/kg

Source: patent publication US9101769B2, “High density epidural stimulation for facilitation of locomotion, posture, voluntary movement, and recovery of autonomic, sexual, vasomotor, and cognitive function after neurological injury” (The Regents of the University of California, priority 2011, dated 2015)
